For assay [1], the system named is LTB4 synthesis in human whole blood. Briefly: human whole blood (HWB) assay, inhibition of LTB4 production. The class given is cell-based. Conditions: heparinized human whole blood, calcimycin 20 μM stimulation, plasma LTB4. Summed up: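 Plasma LTB4, quantified by HTRF immunoassay, is the read-out after calcimycin challenge (20 μM final, 30 min, 37 °C) of heparinized whole blood that had been pretreated with compound for 15 min at 37 °C; values given as IC50.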

Another assay concerns the target T1, human LTA4 hydrolase (Homo sapiens, UniProt P09960).
T1 sequence (P09960 1-611): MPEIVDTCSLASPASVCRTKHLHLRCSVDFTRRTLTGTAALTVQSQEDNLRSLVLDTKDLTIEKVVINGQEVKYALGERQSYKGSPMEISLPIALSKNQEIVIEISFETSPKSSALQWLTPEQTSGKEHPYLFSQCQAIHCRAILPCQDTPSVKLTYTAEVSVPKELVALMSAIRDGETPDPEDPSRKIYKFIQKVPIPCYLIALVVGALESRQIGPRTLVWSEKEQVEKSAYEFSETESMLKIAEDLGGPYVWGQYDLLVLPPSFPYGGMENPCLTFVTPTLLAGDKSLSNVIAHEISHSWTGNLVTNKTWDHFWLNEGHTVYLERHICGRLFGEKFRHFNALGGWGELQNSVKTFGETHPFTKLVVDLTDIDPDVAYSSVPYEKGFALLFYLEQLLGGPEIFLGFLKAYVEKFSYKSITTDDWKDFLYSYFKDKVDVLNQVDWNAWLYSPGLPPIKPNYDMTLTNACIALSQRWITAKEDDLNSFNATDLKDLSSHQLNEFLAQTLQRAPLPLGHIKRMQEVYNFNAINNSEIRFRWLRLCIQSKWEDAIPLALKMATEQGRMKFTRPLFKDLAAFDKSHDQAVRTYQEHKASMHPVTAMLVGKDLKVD
Briefly: LTA4H Enzyme assay (peptidase, Arg-AMC cleavage). In kind it is biochemical. The conditions noted are these: LTA4H enzyme 1 nM, Arg-AMC substrate 50 μM, room temperature 1 h, fluorescence 380/460 nm. Summed up: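 Human LTA4H (1 nM final) incubated with compound and Arg-AMC (50 μM final) in 50 mM Tris-HCl pH 7.5, 100 mM KCl, 0.5% BSA, 1 h at room temperature. Product read as AMC fluorescence (ex 380/em 460 nm); IC50 reported.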

On to `CC1(O)CN(Cc2ccc3cc(Oc4ccc(-c5ccn[nH]5)cn4)ccc3n2)C1` [Example 174, 3-Methyl-1-{6-[5-(2H-pyrazol-3-yl)-pyridin-2-yloxy]-quinolin-2-ylmethyl}-azetidin-3-ol], for which the IC50 in assay [1] came out at 140 nM; at human LTA4 hydrolase it was 0.65 nM.
Regarding `CN(Cc1nc2cc(Oc3ccc(-c4ccn[nH]4)cc3)ccc2[nH]1)C[C@H]1CCCO1` [Example 81], the IC50 in assay [1] is 100 nM; at human LTA4 hydrolase it was 0.27 nM.
On to `CC(=O)N1CCN(CCn2cc3cc(Oc4ccc(-c5ccn[nH]5)cc4)ccc3n2)CC1` [Example 93, 1-[4-(2-{5-[4-(2H-Pyrazol-3-yl)-phenoxy]-indazol-2-yl}-ethyl)-piperazin-1-yl]-ethanone], for which the figures for the IC50 (in assay [1]; on human LTA4 hydrolase) were 150 nM and 0.58 nM, respectively.
In the case of `c1cc(-c2ccc(Oc3ccc4cc(CN5CCCC5)oc4c3)nc2)[nH]n1` [Example 127, 5-(2H-Pyrazol-3-yl)-2-(2-pyrrolidin-1-ylmethyl-benzofuran-6-yloxy)-pyridine], the IC50 in assay [1] amounted to 130 nM; against human LTA4 hydrolase it was 0.68 nM.
For `COC[C@@H]1CCCN1Cc1nc2cc(Oc3ccc(-c4ccn[nH]4)cc3)ccc2[nH]1` [Example 173, 2-((S)-2-Methoxymethyl-pyrrolidin-1-ylmethyl)-5-[4-(2H-pyrazol-3-yl)-phenoxy]-1H-benzoimidazole], in that order: 130 nM and 0.16 nM.
With `CC(=O)NC1CCN(CC2Cc3ccc(Oc4ccc(-c5ccn[nH]5)cn4)cc3O2)CC1` (stereo not shown) [Example 125, N-(1-{6-[5-(2H-Pyrazol-3-yl)-pyridin-2-yloxy]-2,3-dihydro-benzofuran-2-ylmethyl}-piperidin-4-yl)-acetamide], the IC50 turned out to be 100 nM in assay [1] and 0.29 nM against human LTA4 hydrolase.
Consider `CC(=O)NC1CC2CCC(C1)N2Cc1ccc2cc(Oc3ccc(-c4cc[nH]n4)cn3)ccc2n1` (stereo not drawn) [Example 238, N-((endo)-8-{6-[5-(1H-Pyrazol-3-yl)-pyridin-2-yloxy]-quinolin-2-ylmethyl}-8-aza-bicyclo[3.2.1]oct-3-yl)-acetamide], for which the IC50 in assay [1] amounted to 250 nM; against human LTA4 hydrolase, 0.61 nM.
In the same order, the values of `CC[C@H](C)N(Cc1nc2cc(Oc3ccc(-c4ccn[nH]4)cc3)ccc2[nH]1)C(C)=O` [Example 103, N—((S)-sec-butyl)-N-{5-[4-(2H-pyrazol-3-yl)-phenoxy]-1H-benzoimidazol-2-ylmethyl}-acetamide] are 190 nM and 0.27 nM.
In the same order, the values of `c1cc(-c2ccc(Oc3ccc4[nH]c(C[C@@H]5CCCN5)nc4c3)cc2)[nH]n1` [Example 207, 5-[4-(2H-Pyrazol-3-yl)-phenoxy]-2-(S)-1-pyrrolidin-2-ylmethyl-1H-benzoimidazole] are 220 nM and 0.17 nM.
For the compound `CCC(=O)N1CCN(Cc2ccc3cc(Oc4ccc(-c5ccn[nH]5)cc4)ccc3n2)CC1` [Example 12, 1-(4-{6-[4-(2H-pyrazol-3-yl)-phenoxy]-quinolin-2-ylmethyl}-piperazin-1-yl)-propan-1-one], the IC50 amounted to 190 nM in assay [1] and 0.45 nM at human LTA4 hydrolase.
Regarding `O=C1OCCN1C1CCN(CC2Cc3ccc(Oc4ccc(-c5ccn[nH]5)cc4)cc3O2)CC1` (stereo not shown) [Example 203, 3-(1-{6-[4-(2H-Pyrazol-3-yl)-phenoxy]-2,3-dihydro-benzofuran-2-ylmethyl}-piperidin-4-yl)-oxazolidin-2-one], the IC50 in assay [1] was 200 nM; against human LTA4 hydrolase, 0.77 nM.
As to `CCOCC1CCN(Cc2nc3cc(Oc4ccc(-c5ccn[nH]5)cc4)ccc3[nH]2)CC1` [Example 193, 2-(4-Ethoxymethyl-piperidin-1-ylmethyl)-5-[4-(2H-pyrazol-3-yl)-phenoxy]-1H-benzoimidazole], the figures for the IC50 (in assay [1]; against human LTA4 hydrolase) were 170 nM and 0.13 nM, respectively.
As to `O=C1CCCCN1C1CCN(Cc2ccc3cc(Oc4ccc(-c5ccn[nH]5)cn4)ccc3n2)CC1` [Example 209, 1′-{6-[5-(2H-Pyrazol-3-yl)-pyridin-2-yloxy]-quinolin-2-ylmethyl}-[1,4′]bipiperidinyl-2-one], the figures for the half-maximal inhibitory concentration (IC50) (in assay [1]; at human LTA4 hydrolase) were 220 nM and 0.66 nM, respectively.
Regarding `O=C(CO)N1CC2CCC1CN2Cc1ccc2cc(Oc3ccc(-c4ccn[nH]4)cn3)ccc2n1` (stereo not shown) [Example 146, 2-Hydroxy-1-(5-{6-[5-(2H-pyrazol-3-yl)-pyridin-2-yloxy]-quinolin-2-ylmethyl}-2,5-diaza-bicyclo[2.2.2]oct-2-yl)-ethanone], the IC50 in assay [1] was found to be 160 nM; against human LTA4 hydrolase, 0.37 nM.
For `CN(C)CC1CCc2cc(Oc3ccc(-c4ccn[nH]4)cc3)ccc2O1` (stereo not shown) [Example 8, dimethyl-{6-[4-(2H-pyrazol-3-yl)-phenoxy]-chroman-2-ylmethyl}-amine], in that order: 99 nM and 0.35 nM.
Take `CCN(CCOC)Cc1nc2cc(Oc3ccc(-c4ccn[nH]4)cc3)ccc2[nH]1` [Example 155, Ethyl-(2-methoxy-ethyl)-{5-[4-(2H-pyrazol-3-yl)-phenoxy]-1H-benzoimidazol-2-ylmethyl}-amine]: the IC50 in assay [1] came to 95 nM; against human LTA4 hydrolase, 0.18 nM.
In the same order, the values of `c1cc(-c2ccc(Oc3ccc4[nH]c(C5(N6CCOCC6)CC5)nc4c3)cc2)[nH]n1` [Example 59, 2-(1-Morpholin-4-yl-cyclopropyl)-5-[4-(2H-pyrazol-3-yl)-phenoxy]-1H-benzoimidazole] are 130 nM and 0.13 nM.
For the compound `O=C1CCC2CN(Cc3ccc4cc(Oc5ccc(-c6ccn[nH]6)cn5)ccc4n3)CCN12` (stereo not shown) [Example 18, 2-{6-[5-(2H-pyrazol-3-yl)-pyridin-2-yloxy]-quinolin-2-ylmethyl}-hexahydro-pyrrolo[1,2-a]pyrazin-6-one], the IC50 in assay [1] stood at 580 nM; on human LTA4 hydrolase it was 2 nM.
For `O=C(O)C1CCN(Cc2cn3cc(Oc4ccc(-c5ccn[nH]5)cc4)ccc3n2)CC1` [Example 259, 1-{6-[4-(2H-Pyrazol-3-yl)-phenoxy]-imidazo[1,2-a]pyridin-2-ylmethyl}-piperidine-4-carboxylic acid], the IC50 came out at 2100 nM in assay [1] and 0.12 nM at human LTA4 hydrolase.
Consider `CN(C(=O)CO)C1CCN(Cc2ccc3cc(Oc4ccc(-c5ccn[nH]5)cn4)ccc3n2)CC1` [Example 33, 2-Hydroxy-N-methyl-N-(1-{6-[5-(2H-pyrazol-3-yl)-pyridin-2-yloxy]-quinolin-2-ylmethyl}-piperidin-4-yl)-acetamide], for which the IC50 in assay [1] is 230 nM; on human LTA4 hydrolase, 0.77 nM.
In the same order, the values of `CC(=O)N1CCCN(CCC2COc3cc(Oc4ccc(-c5ccn[nH]5)cn4)ccc32)CC1` (stereo not shown) [Example 135, 1-[4-(2-{6-[5-(2H-Pyrazol-3-yl)-pyridin-2-yloxy]-2,3-dihydro-benzofuran-3-yl}-ethyl)-[1,4]diazepan-1-yl]-ethanone] are 180 nM and 0.56 nM.
For the compound `N#CCC(=O)N1CCN(Cc2ccc3cc(Oc4ccc(-c5ccn[nH]5)cn4)ccc3n2)CC1` [Example 31, 3-Oxa-3-(4-{6-[5-(2H-pyrazol-3-yl)-pyridin-2-yloxy]-quinolin-2-ylmethyl}-piperazin-1-yl)-propionitrile], the IC50 in assay [1] stood at 200 nM; on human LTA4 hydrolase, 1 nM.
As to `CCCN(CCO)Cc1nc2cc(Oc3ccc(-c4ccn[nH]4)cc3)ccc2[nH]1` [Example 199, 2-(Propyl-{5-[4-(2H-pyrazol-3-yl)-phenoxy]-1H-benzoimidazol-2-ylmethyl}-amino)-ethanol], the half-maximal inhibitory concentration (IC50) in assay [1] was determined as 190 nM; at human LTA4 hydrolase, 0.13 nM.

One may read the IC50 as the concentration that gives 50% inhibition.

These data come from patent publication US9403830B2, “Inhibitors of leukotriene production” (Boehringer Ingelheim International GmbH, priority 2012, dated 2016).
